Test: Cytotoxicity against chicken HD11 cells assessed as cell viability after 24 hrs by MTS assay
Format: ADME, cell-based
Conditions: Gallus gallus, HD11, 24 h

| SMILES | IC50 [µM] |
| --- | --- |
| C=C1C(=O)O[C@@H]2/C=C(/C)[C@@H](O)C[C@H]3O[C@]3(C)C[C@@H](OC(=O)/C(C)=C\C)[C@@H]12 [EPOXYNOBILIN] | > 30 |
| C=C1C(=O)O[C@@H]2[C@H]1CC[C@H](C)[C@]1(CCC(=O)O1)[C@@]2(C)O [PSILOSTACHYIN A] | > 30 |
| C=C1C(=O)O[C@@H]2C[C@]3(C)[C@@H](CCC(C)=O)[C@]3(C)C[C@H]12 [CARABRONE] | > 30 |
| C=C1C(=O)O[C@@H]2C[C@@]3(C)CCCC(=C)[C@@H]3C[C@H]12 [ISOALANTOLACTONE] | > 30 |
| C=C1C(=O)O[C@@H]2C[C@@H](C)[C@@H]3[C@@H](O)C[C@@H](OC(=O)/C(C)=C/C)[C@@]3(C)[C@@H](O)[C@H]12 | > 30 |
| C=C(C)C(=O)O[C@H]1C[C@@]2(C)OC(=CC2=O)/C(CO)=C\[C@H]2OC(=O)C(=C)[C@H]12 [GOIAZENSOLIDE] | 10.1 |
| C=C1C(=O)O[C@@H]2/C=C(/CO)C[C@H](O)/C=C(/C(=O)OC)[C@@H](OC(C)=O)[C@@H](OC(=O)C(C)C)[C@@H]12 | 24.8 |
| C=C1C(=O)O[C@H]2[C@H]1[C@H](OC(C)=O)C/C(C)=C/CC[C@@]1(C)O[C@@H]21 | > 30 |
| C=C1C(=O)O[C@@H]2C[C@@H](C)[C@@H]3[C@@H](OC(C)=O)C[C@@H](O)[C@@]3(C)C[C@H]12 | > 30 |
| C=C1C(=O)O[C@@H]2C[C@H](C)[C@]3(O)CCC(=O)[C@@]3(C)C[C@H]12 [PERUVIN] | > 30 |
| C=C1C(=O)O[C@@H]2[C@H]3O[C@]3(C)CC/C=C(\C)[C@@H](OC(=O)C(C)C(C)O)C[C@@H]12 (stereo partly drawn) | > 30 |
| C=C1C[C@H]2OC(=O)C(=C)[C@@H]2[C@H](OC(=O)/C(C)=C/C)C[C@@]2(C)OC1=CC2=O | 12.1 |
| C=C1C(=O)O[C@@H]2C[C@H](C)[C@@]3(O)C=C(C(C)=O)[C@@]4(O[C@@H]3C[C@H]12)C(=O)O[C@H]1C[C@@H](C)[C@]2(/C=C/C(C)=O)O[C@@H]2C[C@H]14 | > 30 |
| C=C(C)C(=O)O[C@@H]1C[C@@]2(C)OC(=CC2=O)C(=C)C[C@H]2OC(=O)C(=C)[C@H]12 | 10.4 |
| C=C1C(=O)O[C@@H]2C[C@H](C)[C@@]3(O)C=C(C(C)=O)[C@@]4(O[C@@H]3C[C@H]12)C(=O)O[C@H]1C[C@@H](C)C(/C=C/C(C)=O)=CC[C@H]14 | > 30 |
| C=C1C(=O)O[C@@H]2/C=C(/C)[C@@H](O)C/C=C(\C)C[C@H](OC(=O)/C(C)=C\C)[C@@H]12 [NOBILIN] | > 30 |
| C=C1C(=O)O[C@@H]2C[C@@H](C)[C@@H]3[C@@H](OC(C)=O)C[C@@H](O)[C@@]3(OC(C)=O)C[C@H]12 | > 30 |
| C=C1C(=O)O[C@@H]2C[C@@H](C)[C@@H]3[C@@H](OC(C)=O)C[C@@H](O)[C@@]3(C)[C@@H](O)[C@H]12 [CHAMISSONOLIDE] | > 30 |
| C=C1C(=O)O[C@@H]2C[C@@H](C)C(=O)C/C=C(\C)CC[C@@H]12 [ARGOLIDE] | > 30 |
| C=C1C(=O)O[C@@H]2/C=C(/CO)C3=CC(=O)[C@@](C)(C[C@@H](OC(=O)/C(C)=C/C)[C@@H]12)O3 [BUDLEIN A] | 9 |

| SMILES | IC50 [µM] |
| --- | --- |
| C=C1C(=O)O[C@@H]2C[C@@]3(C)CCC[C@H](C)C3=C[C@H]12 [HELENINE] | > 30 |
| C=C1C(=O)O[C@@H]2C[C@@H](C)[C@@H]3C=CC(=O)[C@@]3(C)[C@@H](O)[C@H]12 [HELENALIN] | 21.1 |
| C=C1C(=O)O[C@@H]2/C=C(\C)CC[C@H]3O[C@]3(COC(C)=O)C[C@@H](OC(=O)C3(C)OC3C)[C@@H]12 (stereo partly drawn) | 25.5 |
| C=C1C(=O)O[C@@H]2C[C@H](C)C(/C=C/C(C)=O)=CC[C@H]12 | > 30 |
| C=C1C(=O)O[C@@H]2C[C@@H](C)[C@@H]3C=CC(=O)[C@@]3(C)[C@@H](OC(=O)C(C)C)[C@H]12 [HELENALINISOBUTYRATE] | > 30 |
| C=C1C(=O)O[C@@H]2/C=C(/C)C(=O)/C=C/[C@](C)(O)C[C@@H](OC(=O)C(C)C)[C@@H]12 [TAGITININ C] | 30.9 |
| C=C1C(=O)O[C@H]2[C@H]1[C@H](OC(=O)[C@@]1(C)O[C@H]1C)[C@@H](OC(C)=O)/C(C(=O)OC)=C\CC[C@@]1(C)O[C@H]21 [ENHYDRIN] | 7.49 |
| CC(C)CC(=O)O[C@H]1[C@@H]2[C@H](C)C(=O)O[C@@H]2C[C@@H](C)[C@@H]2C=CC(=O)[C@]21C | > 30 |
| C=C1C(=O)O[C@H]2[C@H]1[C@H](OC(=O)[C@]1(C)O[C@@H]1C)[C@@H](OC(C)=O)/C(C(=O)OC)=C\C=C/[C@@]1(C)O[C@H]21 | 28 |
| C=C1C(=O)O[C@@H]2C[C@H](C)[C@]3(/C=C/C(C)=O)O[C@@H]3C[C@H]12 | > 30 |
| C=C1C(=O)O[C@H]2C[C@H](C)[C@@H]3CC[C@@]4(C)O[C@@]34C[C@H]12 | > 30 |
| C=C1C(=O)O[C@@H]2C[C@@]3(C)C[C@@H](O)CC(=C)[C@@H]3C[C@H]12 [IVALIN] | > 30 |
| C=C1C[C@H](O)C[C@]2(C)C[C@H]3OC(=O)[C@@H](C)[C@H]3C[C@@H]12 | > 30 |
| C=C1C(=O)O[C@@H]2C[C@@H](C)[C@@H]3[C@@H](OC(C)=O)C[C@@H](OC(C)=O)[C@@]3(C)[C@@H](OC(C)=O)[C@H]12 | > 30 |
| C=C1C(=O)O[C@H]2C[C@@H](C)[C@@H]3C=CC(=O)[C@@]3(C)[C@H](O)[C@H]12 [MEXICANIN I] | 21.1 |
| C=C1C(=O)O[C@@H]2/C=C(\C)CC/C=C(\C)CC[C@@H]12 [COSTUNOLIDE] | > 30 |
| C=C1C(=O)O[C@@H]2C[C@@H](C)[C@@H]3CCC(=O)[C@@]3(C)C[C@H]12 | > 30 |
| C=C1C(=O)O[C@@H]2C[C@@H](C)[C@@H]3C=CC(=O)[C@@]3(C)[C@@H](OC(C)=O)[C@H]12 [ANGUSTIBALIN] | 7.34 |
| C=C1C(=O)O[C@@H]2[C@H]3C(C)=CC[C@H](O)[C@]3(C)CC[C@@H]12 [DOUGLANIN] | > 30 |
| C=C1C(=O)O[C@@H]2[C@H]3O[C@]3(C)CC/C=C(\C)[C@@H](OC(=O)CC3(C)OC3C)C[C@@H]12 (stereo partly drawn) | 22.2 |

| SMILES | IC50 [µM] |
| --- | --- |
| C=C1C(=O)O[C@@H]2C[C@@]3(C)CC(=O)C[C@H](C)C3=C[C@H]12 [2-OXOALANTOLACTONE] | > 30 |
| C=C1C(=O)O[C@@H]2/C=C(\C)CC/C=C(/C(=O)OC)[C@H](OC(C)=O)[C@@H](OC(=O)[C@]3(C)O[C@@H]3C)[C@@H]12 [UVEDALIN] | 11.4 |
| C=C1C(=O)O[C@@H]2C[C@@H](C)[C@@H]3[C@@H](O)CC(=O)[C@@]3(C)[C@@H](OC(=O)/C(C)=C/C)[C@H]12 [ARNIFOLIN] | > 30 |
| C=C1C(=O)O[C@@H]2C[C@@H](C)[C@@H]3[C@@H](O)C[C@@H](O)[C@@]3(C)C[C@H]12 | > 30 |
| C=C1C(=O)O[C@@H]2C3O[C@]3(C)CC/C=C(\C)CC[C@@H]12 (stereo partly drawn) | > 30 |
| C/C1=C\CC[C@@]2(C)O[C@@H]2[C@H]2OC(=O)[C@@H](C)[C@@H]2CC1 [11BETA,13-DIHYDRO-PARTHENOLIDE] | > 30 |
| C=C(CO)C(=O)O[C@H]1C/C(C)=C\CC/C(CO)=C\[C@H]2OC(=O)C(=C)[C@H]12 [ONOPORDOPICRIN] | > 30 |
| CC(=O)O[C@H]1[C@@H]2[C@H](C)C(=O)O[C@@H]2C[C@@H](C)[C@@H]2C=CC(=O)[C@]21C | 21 |
| C=C1C[C@H]2OC(=O)C(=C)[C@@H]2[C@H](OC(=O)C(C)C)C[C@@]2(C)OC1=CC2=O | 25.2 |
| C=C1C(=O)O[C@@H]2/C=C(/C)[C@@H](OC(C)=O)C[C@H]3O[C@]3(O)C[C@@H](OC(=O)/C(C)=C\C)[C@@H]12 | > 30 |
| C=C1C(=O)O[C@@H]2/C=C(/C)[C@@H](O)C[C@H]3O[C@]3(COC(C)=O)C[C@@H](OC(=O)/C(C)=C\C)[C@@H]12 [ROTUNDIN] | > 30 |
| C=C1C(=O)O[C@@H]2/C=C(\CO)CC/C=C(\C)C[C@H](OC(=O)C(=C)[C@H](O)CO)[C@@H]12 [CNICIN] | > 30 |
| C=C1CC[C@H]2C(=C)CC[C@H]3C(=C)C(=O)O[C@@H]3[C@@H]12 [DEHYDROCOSTUSLACTONE] | > 30 |
| C=C1C(=O)O[C@@H]2/C=C(\C)CC/C=C(/C(=O)OC)[C@H](OC(C)=O)[C@@H](OC(=O)C(C)(O)C(C)O)[C@@H]12 (stereo partly drawn) | > 30 |
| C=C1C(=O)O[C@@H]2C[C@@H](C)[C@@H]3[C@@H](OC(C)=O)C[C@@H](OC(C)=O)[C@@]3(C)C[C@H]12 | > 30 |
| C=C1C(=O)O[C@@H]2[C@H]3O[C@]3(C)CC/C=C(\C)[C@@H](OC(=O)CC(C)(C)O)C[C@@H]12 | > 30 |
| C=C1C(=O)O[C@@H]2[C@H]3C(C)=CC[C@@]34O[C@@]4(C)CC[C@@H]12 [ARGLABIN] | > 30 |
| C=C1C(=O)O[C@@H]2/C=C(\C)CC[C@H]3O[C@]3(CO)C[C@@H](OC(=O)C3(C)OC3C)[C@@H]12 (stereo partly drawn) | > 30 |

From ChEMBL document CHEMBL2380234, “Natural sesquiterpene lactones as inhibitors of Myb-dependent gene expression: structure-activity relationships” (Eur J Med Chem, 2013)
